This note sets out measurements from article PMC6711809 (Bioorganic & medicinal chemistry letters, 2019).

The experiment deals with HIV-1 protease (Human immunodeficiency virus type 1 group M subtype B, UniProt P04585). Briefly: HIV-1 protease inhibitory activity. The experiment is classed as biochemical. The conditions noted are these: for fold better inhibitory activity than 3i: compared with 3i.

For `COCCOc1c(N[C@@H](Cc2ccccc2)[C@H](O)CN(CC(C)C)S(=O)(=O)c2ccc(OC)cc2)c(=O)c1=O` [Inhibitor 3b], the “loss of protease inhibitory activity relative to 3a” value (compared with 3a) is listed as “over 4 fold”. For `COc1ccc(S(=O)(=O)N(CC(C)C)C[C@@H](O)[C@H](Cc2ccccc2)Nc2c(N(C)[C@H]3CCOC3)c(=O)c2=O)cc1` [Inhibitor 3g], the “potency enhancement over compound 3e” value (compared with 3e) came to 15 fold.

In the case of `COc1ccc(S(=O)(=O)N(CC(C)C)C[C@@H](O)[C@H](Cc2ccccc2)Nc2c(N(C)[C@@H]3CCOC3)c(=O)c2=O)cc1` [Inhibitor 3h], under “compared with 3g”, the “fold more potent than 3g” value is recorded as “over 775 fold”. `COc1ccc(S(=O)(=O)N(CC(C)C)C[C@@H](O)[C@H](Cc2ccccc2)Nc2c(N[C@@H]3CO[C@@H]4OCC[C@@H]43)c(=O)c2=O)cc1` [Inhibitor 3j]: the “fold better inhibitory activity than 3i” value was ~10 fold. Same read-out and setting: the entry for `COc1ccc(S(=O)(=O)N(CC(C)C)C[C@@H](O)[C@H](Cc2ccccc2)Nc2c(N(C)[C@H]3CO[C@H]4OCC[C@H]43)c(=O)c2=O)cc1` [Inhibitor 3k] is “over 10 fold”.
